The record followed here is patent US20110054025A1, “USE OF A PENTACYCLIC TRITERPENE IN A PHARMACEUTICAL COMPOSITION FOR THE TREATMENT OF MULTIPLE SCLEROSIS” (CONSEJO SUPERIOR DE INVESTIGACIONES CIENTIFICAS, priority 2008, published 2011).

Format in all cases: in vivo, C57BL/6 mice
For test [1], the system named is experimental autoimmune encephalomyelitis (EAE) mice. The experiment in a line: Experimental autoimmune encephalomyelitis (EAE) in mice: clinical score, body weight, survival. The protocol: In the experiments we used fifteen animals per group. EAE was induced as described (Slavin A. Autoimmunity 1998, 28: 109) in C57BL mice by […]. The immunization was carried out with 100 μg of a partial peptide of myelin/oligodendrocyte glycoprotein ([…]) in complete Freund's adjuvant containing 4 mg of Mycobacterium tuberculosis H37Ra in 1 ml. The mice were immunized by subcutaneous injection of this emulsion on day 0. In addition, on day 0 and 2, were administered intraperitoneally 300 ng/200 μl of Bordetella pertussis toxin. The administration of 6 mg/kg of oleanolic acid was performed intraperitoneally once a day, beginning:
1.—12 days after induction of EAE, when clinical symptoms were detected, until the end of the experiment (21 days after induction) (OA1), and
2.—after 7 days of induction of EAE, before the onset of the disease, until the end of the experiment (21 days after induction) (OA2).
Mice were examined, weighed and scored daily in a double-blind manner for signs of EAE. OA-treated EAE mice were compared with a group of EAE animals treated with placebo, with untreated control animals or control animals received the same daily dose oleanolic acid. In addition, a pathologic evaluation was performed to confirm the effect of improving the state of the disease. The weight of the mice in each group is represented in FIGS. 1 A and 2 A. The level of paralysis reached by each group of mice is shown in FIGS. 1 B and 2 B.
The effect of disease improvement (clinical effect) by the action of oleanolic acid is scored and evaluated with the pattern presented below.
Grade 0.5, partial loss/reduced tail tone, assessed by inability to curl the distal end of the tail (Tail 50% or ⅔).
Grade 1.0, tail atony 100%
Grade 1.5, slightly/moderately clumsy gait, impaired righting ability, or combination.
Grade 2.0, hind limb weakness, partial (1 or 2)
Grade 2.5, partial (1 or 2) hind limb paralysis.
Grade 3, complete hind limb paralysis.
Grade 3.5, limb weakness.
Grade 4, tetraplegic. Complete limb paralysis
Grade 5, moribund state or death.
Chronic progressive EAE disease was induced in adult 8-10-wk-old female C57BL/J6 mice following the protocol described by (Slavin A. Autoimmunity 1998, 28:109-20). Mice were injected in the tail base bilaterally with an innoculum containing 100 μg of MOG peptide 35-55 emulsified in complete Freund's adjuvant containing 0.4 mg/ml Mycobacterium tuberculosis H37 RA. Then, i.p. injection 300 ng/animal of B. pertussis toxin was administered by two times with an interval of 48 hours. Mice were examined daily to monitor weight loss and the onset of neurological symptoms

Test [2] deals with Osteopontin. The experiment in a line: Osteopontin in CNS tissues of EAE mice by ELISA. As to conditions: spinal cord, brain and cerebellum, day 21 post-immunization, vs EAE mice. The protocol: Animals of the different experimental groups were sacrificed at day 21 post-immunization and CNS protein extracts (cerebral cortex, cerebellum and spinal cord) were prepared by homogenization in a solution: 0.4 M NaCl, 0.05% Tween 20, 0.5% BSA, 0.1 mM phenylmethylsulfonyl fluoride, 0.1 mM benzetonium chloride, 10 mM EDTA and 20 KI aprotinin (100 mg tissue/ml). The homogenate was centrifuged at 10,000 rpm for 10 min at 4° C. The concentration of osteopontin was determined in the supernatants by a commercial ELISA kit.
Background: ELISA stands for enzyme-linked immunosorbent assay.

For test [3], the system named is leukocyte rolling and adhesion on brain microvasculature. Put plainly: Intravital fluorescence microscopy of leukocyte-endothelium interactions in brain microvasculature of EAE mice. The note with it: vs untreated EAE group. As to the method: Intravital microscopy techniques allow the study of leukocyte-endothelium interactions. […] To make a precise study of leukocyte-endothelium interactions, we first made a record of the venule for one minute using a camcorder, and in a second time, a more detailed analysis was performed. The parameters of interest were the number of leukocytes adhering to the venular endothelium (number of leukocytes stationary for more than 30 seconds), and the number of rolling leukocytes (number of white cells per minute moving at a velocity less than that of erythrocytes).
The craniotomy was performed on the parietal zone. Animals received i.v. administration of rhodamine 6G (0.3 mg/kg body weight) to fix leucocytes. The fluorescence associated to rhodamine 6G was visualized at 510-560 nm by epi-ilumination. The microscope (20×) was used for observing micro-circulating events in brain.

Test [4] has as its system blood-brain barrier permeability. Put plainly: Evans blue extravasation (blood-brain barrier permeability) in CNS tissues of EAE mice. The note with it: spinal cord, brain and cerebellum, vs untreated EAE animals. As to the method:
Evans blue dye is able to bind quantitatively to albumin, both in vivo and in vitro. This property has been widely used for quantification of protein extravasation as an index of increased vascular permeability and, indirectly, of tissue damage. The Evans Blue, once extravasated into the tissues, is removed from them, and then quantified by visible spectrophotometry.
Mice from all experimental groups were given 30 mg/kg of Evans Blue i.p. Then, the spinal cord, cerebrum and cerebellum was removed and washed in saline. The dye was extracted from the CNS tissues with formamide and the concentration was determined by measuring the absorvance at 620 nm. CNS tissue was dried 24 h at 60° C. and weighed. The extravasated dye was expressed as μg of Evans Blue/mg dried weight of the tissue.

Molecules are shown by their SMILES. Entries after “also recorded” stand apart in the source; their conditions may differ.

With `CC1(C)CC[C@]2(C(=O)O)CC[C@]3(C)C(=CCC4[C@@]5(C)CC[C@H](O)C(C)(C)C5CC[C@]43C)C2C1` (stereo partly drawn) [oleanolic acid, 3β-hydroxyolean-12-en-28-oic acid], the “clinical status / severity of the disease (signs of paralysis score)” value in test [1] (OA1: 6 mg/kg ip daily from day 12 after induction (onset of clinical symptoms) to day 21, vs untreated EAE mice) is on record as “decreases the severity of the disease; also recorded: significant improvement in clinical status of the disease”. For the same compound, the body weight result in test [1] (OA1: 6 mg/kg ip daily from onset of symptoms, recovery effect (FIG. 1A)) is “reduction of body weight was suppressed”; in test [1] (OA2: 6 mg/kg ip daily from day 7, preventive effect (FIG. 2A)), “reduction of body weight was suppressed”. Besides, the “onset of the disease” value in test [1] (OA2: prophylactic, 6 mg/kg ip daily from day 7 after induction to day 21, 6 mg/kg) is recorded as “delays the onset of EAE; also recorded: delay in the onset of the disease”. For the same compound, in test [1] (OA2: prophylactic, 6 mg/kg ip daily from day 7 after induction to day 21, vs untreated EAE mice), the “severity of EAE (clinical signs)” value is “significantly attenuated”. In addition, the “survival (time until animals die)” value in test [1] (oleanolic acid given at the onset of symptoms, placebo-treated EAE mice die within first 40 days) is given as ≥ 60 days post-induction. The “Osteopontin expression in CNS tissues” value is “significantly reduced” in test [2] (protocol OA1) and “significantly reduced” in test [2] (second protocol (printed OA1, FIG. 5: EAE+OA2)). Moreover, the “flow of leukocytes rolling on the endothelium” value in test [3] (protocol EAE+OA1) and in test [3] (protocol EAE+OA2) was “significant decrease” throughout. Besides, the “leukocytes adhering to the endothelium” value in test [3] (protocol EAE+OA1) and in test [3] (protocol EAE+OA2) was “significant decrease” in each case. Besides, the “Evans blue leakage in CNS tissues (vascular permeability)” value in test [4] (protocol EAE+OA1) and in test [4] (protocol EAE+OA2) was “significantly reduced leakage” throughout.
